Data: patent publication US6713488B2 (priority 2000, dated 2004)
Entries after “also recorded” stand apart in the source; their conditions may differ.

Tests used:
[1] = target: T1, μ opioid receptor (Homo sapiens, UniProt P35372); format: binding
T1 construct: FLAG (N); expressed in transfected cells

[2] = test system: morphine-induced antinociception; assay: antagonism of morphine antinociception, 55° C. warm-water tail flick assay; format: in vivo, mice; settings: for blockade of antinociceptive actions of morphine: 10 mg/kg i.p., morphine 20 nmol i.c.v. (A90), 55° C. tail-flick; for ID50 value against morphine-induced antinociception: morphine 20 nmol i.c.v.
[3] = target: T2, δ opioid receptor (Mus musculus, UniProt P32300); assay: 3H-naloxone equilibrium binding to DOR; settings: 3H-naloxone 2 nM tracer, mean of triplicate ± SD
T2 construct: expressed in transfected cells; host or cells: HEK 293

[4] = target: T3, human MOR (Homo sapiens, UniProt P35372); format: biochemical
T3 construct: FLAG (N); expressed in transfected cells; host or cells: HEK 293

[5] = target: T3, human MOR; format: cell-based
[6] = test system: acute mouse model of morphine dependence; assay: withdrawal jumping in acute mouse model of morphine dependence; format: in vivo, mice; settings: 10 mg/kg i.p.; for reduction of jumping versus parent compound: acute morphine dependence; for withdrawal jumping: mice pretreated once with morphine 100 mg/kg s.c. -4 hr, 15 minutes observation
[7] = test system: chronic mouse model of morphine dependence; assay: withdrawal jumping in chronic mouse model of morphine dependence (morphine pellet implantation); format: in vivo, mice; settings: for dose needed to elicit 100 jumps/mouse / plateau of withdrawal jumping: i.p.
[8] = target: DOR (Rattus norvegicus, UniProt P33533); settings: cited from earlier work
[9] = test system: SH-SY5Y cells; settings: cited from earlier work
[10] = test system: drug-dependent mice; settings: cited from earlier work

T2 sequence (P32300 whole entry): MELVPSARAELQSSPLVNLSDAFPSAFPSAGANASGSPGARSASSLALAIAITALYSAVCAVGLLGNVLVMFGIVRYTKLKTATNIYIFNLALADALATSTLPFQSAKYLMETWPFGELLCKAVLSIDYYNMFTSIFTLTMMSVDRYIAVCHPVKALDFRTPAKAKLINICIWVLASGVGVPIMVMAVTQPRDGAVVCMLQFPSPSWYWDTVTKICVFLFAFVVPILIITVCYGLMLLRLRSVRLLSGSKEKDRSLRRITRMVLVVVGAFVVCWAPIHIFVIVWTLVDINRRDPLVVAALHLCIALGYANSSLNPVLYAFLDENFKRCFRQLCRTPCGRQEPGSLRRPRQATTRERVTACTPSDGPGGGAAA
T1 sequence (P35372 whole entry): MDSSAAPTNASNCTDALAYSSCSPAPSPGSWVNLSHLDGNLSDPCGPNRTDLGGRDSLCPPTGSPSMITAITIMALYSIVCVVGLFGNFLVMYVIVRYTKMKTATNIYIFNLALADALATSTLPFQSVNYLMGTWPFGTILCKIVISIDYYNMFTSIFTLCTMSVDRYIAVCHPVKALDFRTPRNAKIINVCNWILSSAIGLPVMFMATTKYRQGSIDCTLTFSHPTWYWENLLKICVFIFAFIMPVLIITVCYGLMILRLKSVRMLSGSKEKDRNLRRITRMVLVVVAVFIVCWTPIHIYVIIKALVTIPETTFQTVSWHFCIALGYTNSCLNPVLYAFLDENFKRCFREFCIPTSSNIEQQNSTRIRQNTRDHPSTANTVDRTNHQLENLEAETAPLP
T3 sequence (P35372 whole entry): as above
Sequence of DOR (P33533 whole entry): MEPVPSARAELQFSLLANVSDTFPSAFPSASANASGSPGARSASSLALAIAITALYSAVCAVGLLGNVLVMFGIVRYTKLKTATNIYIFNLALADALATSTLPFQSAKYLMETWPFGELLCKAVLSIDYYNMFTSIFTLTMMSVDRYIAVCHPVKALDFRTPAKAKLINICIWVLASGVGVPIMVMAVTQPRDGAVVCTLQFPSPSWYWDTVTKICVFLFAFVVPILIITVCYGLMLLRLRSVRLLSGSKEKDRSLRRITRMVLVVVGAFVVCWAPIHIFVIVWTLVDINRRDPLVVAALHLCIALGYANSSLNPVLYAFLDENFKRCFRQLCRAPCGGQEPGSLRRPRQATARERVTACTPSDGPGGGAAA

Molecule: C=CCN1CC[C@]23c4c5ccc(O)c4O[C@H]2[C@@H](O)CC[C@@]3(O)[C@H]1C5 [6α-Naloxol, 6α-naloxol]
- Ki [1]: 0.63 ± 0.04 nM
- blockade of antinociceptive actions of morphine [2]: blocked
- Ki [3]: 2.1 ± 0.2 nM
- blockade of inverse-agonistic effects of β-CNA [4]: blocked
- effect on basal 35S-GTPγS binding activity [4]: no significant effect
- effect on forskolin stimulated cAMP levels [5]: no effect
- reduction of jumping versus parent compound [6]: approximately 50%

Molecule: Oc1ccc2c3c1O[C@H]1[C@H](O)CC[C@@]4(O)[C@@H](C2)N(CC2CC2)CC[C@]314 [6α-Naltrexol, 6α-naltrexol]
- blockade of antinociceptive actions of morphine [2]: blocked
- Ki [3]: 2.4 ± 0.1 nM
- reduction of jumping versus parent compound [6]: approximately 50%

Molecule: N[C@H]1CC[C@@]2(O)[C@H]3Cc4ccc(O)c5c4[C@@]2(CCN3CC2CC2)[C@H]1O5 [6α-naltrexamine]
- effect on basal 35S-GTPγS binding activity [4]: no significant effect

Molecule: C=CCN1CC[C@]23c4c5ccc(O)c4O[C@H]2[C@H](O)CC[C@@]3(O)[C@H]1C5 [6β-Naloxol, 6β-naloxol]
- Ki [1]: 1.1 ± 0.02 nM
- blockade of antinociceptive actions of morphine [2]: only partial blockade
- Ki [3]: 2.3 ± 0.05 nM
- effect on basal 35S-GTPγS binding activity [4]: no significant effect
- effect on forskolin stimulated cAMP levels [5]: no effect
- withdrawal jumping [6]: no withdrawal jumping

Molecule: N[C@@H]1CC[C@@]2(O)[C@H]3Cc4ccc(O)c5c4[C@@]2(CCN3CC2CC2)[C@H]1O5 [6β-Naltrexamine, 6β-naltrexamine]
- Ki [1]: 0.63 ± 0.05 nM
- blockade of antinociceptive actions of morphine [2]: only partial blockade
- Ki [3]: 2.3 ± 0.09 nM
- withdrawal jumping [6]: no withdrawal jumping

Molecule: Oc1ccc2c3c1O[C@H]1[C@H](O)CC[C@@]4(O)[C@@H](C2)N(CC2CC2)CC[C@]314 [6β-Naltrexol, 6β-naltrexol]
- ID50 value against morphine-induced antinociception ([2]; antagonist i.c.v.): 2.3 nmol
- ID50 value against morphine-induced antinociception ([2]; antagonist i.p.): 1.0 mg/kg
- Ki [3]: 2.1 ± 0.01 nM
- dose needed to elicit 100 jumps/mouse [7]: 10 mg/kg
- withdrawal jumping [6]: no withdrawal jumping

Molecule: CC(=O)N[C@@H]1CC[C@@]2(O)[C@H]3Cc4ccc(O)c5c4[C@@]2(CCN3CC2CC2)[C@@H]1O5 [6β-naltrexamide]
- blockade of antinociceptive actions of morphine [2]: effect similar to 6β-naltrexamine
- effect on basal 35S-GTPγS binding activity [4]: no significant effect
- potency in eliciting withdrawal jumping (in words) [7]: low potency
- withdrawal jumping [6]: no withdrawal jumping

Molecule: O=C1/C(=C/c2ccccc2)C[C@@]2(O)[C@H]3Cc4ccc(O)c5c4[C@@]2(CCN3CC2CC2)[C@H]1O5 [BNTX, 7-benzylidene-7-dehydronaltrexone, reference compound]
- effect on basal 35S-GTPγS binding activity [4]: decreased
- effect on forskolin stimulated cAMP levels [5]: increased
- intrinsic activity at DOR [8]: inverse agonists

Molecule: O=C(/C=C/c1ccc(Cl)cc1)N[C@@]12CCC(=O)[C@@H]3Oc4c(O)ccc5c4[C@@]31CCN(CC1CC1)[C@@H]2C5 [C-CAM, clocinnamox, reference compound]
- effect on basal 35S-GTPγS binding activity [4]: decreased
- effect on forskolin stimulated cAMP levels [5]: increased
- intrinsic activity at DOR [8]: inverse agonists

Molecule: C=CCN1CC[C@]23c4c5ccc(O)c4O[C@H]2C(=O)CC[C@@]3(O)[C@H]1C5 [Naloxone, naloxone, reference compound]
- blockade of antinociceptive actions of morphine [2]: blocked
- ID50 value against morphine-induced antinociception ([2]; antagonist i.c.v.): 3.4 nmol
- ID50 value against morphine-induced antinociception ([2]; antagonist i.p.): 1.1 mg/kg
- effect in morphine pretreated SH-SY5Y cells ([9]; morphine pretreated): inverse agonist
- effect in untreated SH-SY5Y cells ([9]; untreated cells): little effect
- dose needed to elicit 100 jumps/mouse [7]: ~0.3 mg/kg
- plateau of withdrawal jumping [7]: approximately 200 jumps/mouse
- withdrawal jumping [6]: aversive effects (withdrawal jumping); also recorded: precipitated robust withdrawal jumping

Molecule: O=C1CC[C@@]2(O)[C@H]3Cc4ccc(O)c5c4[C@@]2(CCN3CC2CC2)[C@H]1O5 [Naltrexone, naltrexone, reference compound]
- blockade of antinociceptive actions of morphine [2]: blocked
- ID50 value against morphine-induced antinociception ([2]; antagonist i.c.v.): 0.26 nmol
- ID50 value against morphine-induced antinociception ([2]; antagonist i.p.): 0.22 mg/kg
- dose needed to elicit 100 jumps/mouse [7]: approximately 0.1 mg/kg
- plateau of withdrawal jumping [7]: approximately 200 jumps/mouse
- withdrawal jumping [6]: aversive effects (withdrawal jumping); also recorded: precipitated robust withdrawal jumping

Molecule: C=C1CC[C@@]2(O)[C@H]3Cc4ccc(O)c5c4[C@@]2(CCN3CC2CC2)[C@H]1O5 [nalmefene, reference compound]
- effect on basal 35S-GTPγS binding activity [4]: decreased

Molecule: COC(=O)C=CC(=O)NC1CCC2(O)C3Cc4ccc(O)c5c4C2(CCN3CC2CC2)C1O5.Cl (stereo not drawn) [β-FNA, β-funaltrexamine HCl, reference compound]
- effect on basal 35S-GTPγS binding activity [4]: no significant effect

Molecule: D-Phe-Cys-Tyr-D-Trp-Arg-Thr-Pen-Thr-Nh2 [CTAP]
- withdrawal elicited compared with naloxone [10]: significantly less withdrawal than naloxone
